Test [1] has as its target T1, human DDAH1 (Homo sapiens, UniProt O94760). In words: Secondary fluorimetric CPM assay with SMTC as substrate. The format is biochemical. The settings on record: for time-dependent inhibition (mode of inhibition): 50 μM compound, 30 nM enzyme, fluorometric CPM assay; for IC50: inhibition of human DDAH1, CPM assay, 30 nM DDAH, 100 μM SMTC; for confirmation as DDAH inhibitor in the validation assay: known DDAH inhibitors.

Test [2] has as its target T1, human DDAH1. In words: Colorimetric L-citrulline assay with ADMA as substrate. The format is biochemical.
Test [3] deals with T1, human DDAH1. The settings on record: cited from earlier work.
The subject of test [4] is primary microvascular endothelial cells (HMVECs). In words: L-citrulline assay in cell lysates. Conditions: 1 mM L-Arginine for 24 hours vs vehicle, p<0.05. The format is cell-based.
For the next test, the system named is DDAH. The settings on record: enzyme isolated from rat kidney homogenates; cited from earlier work.
[5] abbreviates: screening with recombinant human DDAH1, assay format not given.

Where two headings read alike, the source gives them in different places.

T1 sequence (O94760 whole entry): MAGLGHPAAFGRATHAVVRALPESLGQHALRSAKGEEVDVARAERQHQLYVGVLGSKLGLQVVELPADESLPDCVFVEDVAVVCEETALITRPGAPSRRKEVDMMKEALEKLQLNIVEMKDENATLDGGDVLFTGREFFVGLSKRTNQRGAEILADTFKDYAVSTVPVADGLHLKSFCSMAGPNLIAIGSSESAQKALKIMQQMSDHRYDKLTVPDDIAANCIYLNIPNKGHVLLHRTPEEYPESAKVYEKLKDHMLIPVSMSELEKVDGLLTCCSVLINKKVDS

One may read the IC50 as the midpoint of a concentration-inhibition curve. Consider `CC(=O)[O][Hg][c]1ccccc1` [phenylmercuric acetate], for which, on human DDAH1 [1], the “time-dependent inhibition (mode of inhibition)” value was “progressive inhibition” and the concentration for half-maximal inhibition (IC50) was less than 0.78 µM. Moreover, the IC50 at human DDAH1 [2] (setting [5]) is less than 0.78 µM. `CN=c1nc(-c2ccccc2)n(-c2ccccc2)s1` [SCH-202676] came in with an IC50 against human DDAH1 [1] of 13.3 µM. The Km is the substrate concentration at which the rate is half of its maximum. For `CN(C)C(N)=NCCC[C@H](N)C(=O)O` [ADMA, Asymmetric Dimethylarginine], the Km on human DDAH1 [2] worked out at 180 µM. Further, the kcat at human DDAH1 [2] (ADMA as substrate, 0.3 μM DDAH, 500 μM ADMA, 4 hours at 37°C) is given as ~ 0.7 min^−1. With `C[CH2][Hg][S]c1ccccc1C(=O)[O-].[Na+]` [Thimerosal], on human DDAH1 [2] (setting [5]), the half-inhibitory concentration (IC50) worked out at 0.46 µM.

As usually defined, the inhibition is the relative decrease from the control value, in per cent. Take `Cn1c(=O)c2[nH]cnc2n(C)c1=O.[CH2-]C(Cc1cccc2cc(C(=O)O)c(=O)oc12)OC.[Hg+2].[OH-]` (centres unmarked) [Cumertilin]: the inhibition at human DDAH1 [2] (at 25μM, screening with recombinant human DDAH1) is on record as 100%. With `O=c1c2ccccc2[se]n1-c1ccccc1` [ebselen], the “confirmation as DDAH inhibitor in the validation assay” value at human DDAH1 [1] is reported as “confirmed”. Inhibition on human DDAH1 [2] was half-maximal at 3.9 µM (IC50). As to `CSC(N)=NCCC[C@H](N)C(=O)O` [SMTC, S-methyl-L-thiocitrulline], the kcat on human DDAH1 [3] (SMTC as substrate at 100 μM) is on record as ~ 1 min^−1. On human DDAH1 [3] (SMTC as substrate), the Michaelis-Menten constant (Km) is 1 µM.

As for `N=C(N)NCCC[C@H](N)C(=O)O` [L-Arginine], in test [4], the “amount of intracellular L-citrulline” value was “increased the amount of intracellular L-citrulline significantly”. With `O=C(O)c1cc[c]([Hg][Cl])cc1` [chloromercuribenzoate, 4-chloromercuribenzoic acid], at human DDAH1 [1], the “time-dependent inhibition (mode of inhibition)” value was “progressive inhibition” and the “confirmation as DDAH inhibitor in the validation assay” value is recorded as “confirmed”. Also, the “sensitivity of the enzyme to the compound” value in the test on DDAH is listed as “sensitive”.

With `[Cl][Hg][Cl]` [mercury chloride], the “sensitivity of the enzyme to the compound” value with DDAH is on record as “sensitive”.

The values are drawn from PMC3606823 (Journal of biomolecular screening, 2012).
